Test results reported in patent publication US20070185119A1, “Therapeutic agents II” (ASTRAZENECA AB, priority 2004, published 2007).

Molecular target: T1, human Melanin concentrating hormone receptor 1 (MCH1r) (Homo sapiens, UniProt Q99705)
T1 construct: expressed in transfected cells; host or cells: CHO-K1 cells (membranes)
Assay: MCH1 receptor radioligand binding (125I-MCH, CHO-K1 cell membranes)
Conditions: human MCHr binding assay
Procedure: MCH1 Receptor Radioligand Binding.
Assays were performed on membranes prepared from CHO-K1 cells expressing the human Melanin concentrating hormone receptor 1 (MCH1r). Assays were performed in a 96-well plate format in a final reaction volume of 200 μl per well. Each well contained 6 μg of membrane proteins diluted in binding buffer (50 mM Tris, 3 mM MgCl2, 0.05% bovine serum albumin (BSA) and the radioligand ^125I-MCH (IM344 Amersham) was added to give 10 000 cpm (counts per minute) per well. Each well contained 2 μl of the appropriate concentration of competitive antagonist prepared in DMSO and left to stand at 30° C. for 60 minutes. Non-specific binding was determined as that remaining following incubation with 1 μM MCH (Melanin concentrating hormone, H-1482 Bachem). The reaction was terminated by transfer of the reaction to GF/A filters using a Micro96 Harvester (Skatron Instruments, Norway). Filters were washed with assay buffer. Radioligand retained on the filters was quantified using a1450 Microbeta TRILUX (Wallac, Finland).
Non-specific binding was subtracted from all values determined. Maximum binding was that determined in the absence of any competitor following subtraction of the value determined for non-specific binding. […]

T1 sequence (Q99705 whole entry): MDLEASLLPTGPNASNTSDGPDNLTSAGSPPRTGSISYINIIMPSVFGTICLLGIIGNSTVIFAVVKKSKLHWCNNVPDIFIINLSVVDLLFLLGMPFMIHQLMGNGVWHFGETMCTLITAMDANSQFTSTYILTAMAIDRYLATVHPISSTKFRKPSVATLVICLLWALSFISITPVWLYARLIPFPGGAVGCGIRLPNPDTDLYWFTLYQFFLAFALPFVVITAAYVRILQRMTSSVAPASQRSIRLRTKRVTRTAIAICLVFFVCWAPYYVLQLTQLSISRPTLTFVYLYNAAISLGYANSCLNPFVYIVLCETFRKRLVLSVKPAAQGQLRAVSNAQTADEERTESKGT

**Q.** For `CN(C)c1nc(N[C@H]2CCC[C@H](NCc3cn(C)c4ccccc34)C2)nc2ccccc12` (relative stereo) [Example 4, N^4,N^4-dimethyl-N^2-(-3-{[(1-methyl-1H-indol-3-yl)methyl]amino}-trans-cyclohexyl)quinazoline-2,4-diamine], which IC50 is on record?
**A.** 0.015 µM
